Experimental data reported in US5449674A, “2-,3-,5-, and/or 8-substituted dibenzoxazepine compounds, pharmaceutical compositions and methods for treating pain” (G. D. Searle & Co., priority 1994, dated 1995).
In brackets after ≈: the same amount, converted by molar mass. Structures can show the parent of a compound that is named as a salt. Where two headings read alike, the source gives them in different places.

How the values were obtained:
[1] = water solubility; assay type: physicochemical; settings: for solubility: water
Experimental: The title compound was determined to have a high water solubility (>80 mg/mL) by methods known by those of skill in the art.

[2] = system: phenylbenzoquinone (PBQ)-induced writhing in mice; assay: Writhing Assay (PBQ-induced writhing, analgesic activity in mice); assay type: in vivo, Charles River male albino mice; settings: for Writhing assay, number of mice out of nine or ten in which the test compound produced analgesia, I.G. / Writhing assay, number of mice out of nine or ten in which the test compound produced analgesia, S.C.: 30 mg/kg, PBQ i.p. 30 min later; for ED50: Mus musculus
Excerpt: The Writhing Assay is one of the most widely-used experimental procedures for measuring the analgesic activity of different narcotic and nonnarcotic analgesic agents, and involves the continuous, chemically-induced pain of visceral origin to an animal, such as a mouse or rat. [Gyires et al., Arch. int. Pharmacodyn, 267, 131-140 (1984); C. Vander Wende et al., Fed. Proc., 15, 494 (1956); Koster et al., Fed. Proc., 18, 412 (1959); and Witken et al., J. Pharmacol. exp. Ther., 133, 400-408 (1961).]Chemicals which may be used to induce this pain include phenylbenzoquinone (PBQ) and acetic acid. As a result of the chemical irritation to the animal, a characteristic stretching and writhing of the animal (dorsiflexion of the animal's back, extension of its hindlimbs and the strong contraction of its abdominal musculature) will generally occur. […] Drugs which reduce the number of writhes of the animal appear to restore the normal nociceptive threshold of the animal.
Charles River male albino mice, weighing 20 to 30 grams, were used in this assay.
Thirty minutes after subcutaneous or intragastric administration to ten mice of 30 mg per kilogram of body weight of a compound of the present invention ("test compound"), […] per 10 g of body weight of a 0.025% w/v solution of PBQ was injected intraperitoneally into each mouse. Ten mice which were given saline in place of a test compound of the invention were used as a control group.
Five minutes later, each mouse was individually placed into a glass beaker for observation, and the number of writhes occurring during the following ten-minute period was counted.
A test compound was considered to have produced analgesia in a mouse if, in accordance with the conditions set forth above, and under the test criteria employed for this assay, after the administration of 30 mg per kilogram of body weight of a compound of the present invention to the mouse, the number of writhes elicited by a mouse injected with PBQ was equal to, or less than, one-half the median number of writhes recorded for the saline-treated control group of mice that day, as described by Taber in "Predictive Value of Analgesic Assays in Mice and Rats," Advances in Biochemical Psychopharmacology, 8, 191 (1974).
The results for the particular compounds of the present invention analyzed in this assay, and discussed in the examples identified below which correspond thereto, are presented in Table I hereinbelow as fractions under the heading "WRITHING ASSAY." The fractions indicate the number of mice, out of ten, in which the test compound produced analgesia.
The standard initial screening dose of a test compound employed in this assay was […] for both routes of administration. If this initial screening dose of the test compound produced analgesia in seven of ten mice, then the effect of additional doses of the test compound on the writhing response was evaluated, and then the ED50 dose was generally calculated. (The slopes of the dose-response curves for all test compounds analyzed were compared as described by Tallarida and Murray, Manual of Pharmacologic Calculations, Page 11 (Springer Verlag, New York, 1981)).

[3] = molecular target: T1, prostaglandin E2-induced contractions of segments of guinea pig ileum (Cavia porcellus, UniProt A0A286XHJ6); assay: Prostaglandin (PGE) Antagonism Assay; assay type: cell-based; settings: isolated ileum, 37° C., read-out: PGE in guinea pig ileum pA2 (converted)
T1 construct: Segments of ileum about 2 cm long were then cut and mounted in a 10 mL tissue bath; from tissue; host or cells: guinea pig ileum segments
T1 sequence (A0A286XHJ6 1-405): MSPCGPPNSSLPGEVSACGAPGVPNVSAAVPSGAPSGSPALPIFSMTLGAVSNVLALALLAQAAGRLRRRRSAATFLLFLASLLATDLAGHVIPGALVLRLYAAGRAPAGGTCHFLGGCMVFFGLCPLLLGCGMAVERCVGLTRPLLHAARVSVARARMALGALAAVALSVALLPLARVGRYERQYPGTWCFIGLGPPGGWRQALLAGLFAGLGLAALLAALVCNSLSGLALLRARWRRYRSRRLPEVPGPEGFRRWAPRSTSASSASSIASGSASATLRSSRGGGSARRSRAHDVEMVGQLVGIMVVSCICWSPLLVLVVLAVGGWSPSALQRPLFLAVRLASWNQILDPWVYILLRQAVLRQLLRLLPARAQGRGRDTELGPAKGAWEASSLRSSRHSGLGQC
Experimental: In order to determine the effectiveness of several of the compounds of the present invention ("test compounds") as prostaglandin E2 antagonists,a prostaglandin antagonism assay was conducted, as described below, to determine the ability of these compounds to inhibit prostaglandin E2 -induced contractions of segments of guinea pig ileum.
Male albino guinea pigs weighing 200 to 500 grams were sacrificed by cervical dislocation. The ilea were then quickly removed from the guinea pigs and placed in a modified Tyrode solution, a solution which is known to those skilled in the art, containing one-half of the usual amount of magnesium ions.
Segments of ileum about 2 cm long were then cut and mounted in a 10 mL tissue bath containing the modified Tyrode solution. The solution was maintained at 37° C. and aerated with a gaseous mixture of 95% oxygen and 5% carbon dioxide. Data for a control prostaglandin E2 dose response curve plotting concentration of prostaglandin E2 versus the intensity of contractions, detected isotonically, was then obtained by experimentally adjusting the dose of the prostaglandin E2 being injected into the tissue bath, in a manner known by those of skill in the art. […]
A dose ratio of EC50 doses was then calculated from the results of each test in a manner known by those of skill in the art. […]

[4] = system: prostaglandins, isolated smooth muscle preparations; settings: cited from earlier work
[5] = system: micturition reflex; settings: urethane-anesthetized rats; cited from earlier work

SMILES | Writhing assay, number of mice out of nine or ten in which the test compound produced analgesia, I.G. ([2]; intragastric) | Writhing assay, number of mice out of nine or ten in which the test compound produced analgesia, S.C. ([2]; subcutaneous) | also measured
CCS(=O)(=O)CCC(=O)NNC(=O)N1Cc2ccccc2Oc2ccc(Cl)cc21 [8-chlorodibenz[b,f][1,41oxazepine-10(11H)-carboxylic acid, 2-[3(ethylsulfonyl)-1-oxopropyl]hydrazide, reference compound] | – | – | solubility ([1]; comparison compound): 80 µg/mL (≈ 183 µM)
O=C(O)/C=C\C(=O)N1Cc2ccccc2Oc2ccc(Cl)cc21 [Example 2, 4-(8-chloro-10,11-dihydrodibenz[b,f]-oxazepin-10-yl)-4-oxo-2Z-butenoic acid] | 1/10 | 4/10 | –
CCCCOC(=O)/C=C\C(=O)N1Cc2ccccc2Oc2ccc(Cl)cc21 [Example 3, Butyl 4-(8-chloro-10,1! -dihydrodibenz[b,f]-oxazepin-10-yl)-4-oxo-2Z-butenoate] | 6/10 | 4/10 | –
CCCCOC(=O)/C=C/C(=O)N1Cc2ccccc2Oc2ccc(Cl)cc21 [Example 4, Butyl 4-(8-chloro-10,11-dihydrodibenz[b,f]-oxazepin-10-yl)-4-oxo-2E-butenoate] | 6/10 | 6/10 | –
CCCCNC(=O)/C=C\C(=O)N1Cc2ccccc2Oc2ccc(Cl)cc21 [Example 5] | 4/10 | 6/10 | –
COC(=O)/C=C/C(=O)N1Cc2ccccc2Oc2ccc(Cl)cc21 [Example 7, Methyl 4-(8-chloro-10,11-dihydrodibenz[b,f]-oxazepin-10-yl)-4-oxo-2E-butenoate] | 3/10 | 6/9 | –
CN(C)CCNC(=O)/C=C/C(=O)N1Cc2ccccc2Oc2ccc(Cl)cc21 [Example 8, 4-(8-chloro-10,11-dihydrodibenz[b,f]oxazepin-10-yl) -N-[2-(dimethylamino)ethyl]-4-oxo-2E-butenamide, monohydrochloride] | – | – | water solubility (in words) [1]: highly water soluble; solubility [1]: > 80000 µg/mL; Kb [3]: 1860 nM; ED50 ([2]; po, intragastric, read-out: Writhing assay ED50 Dose, I.G.): 8.3 mg/kg; ED50 ([2]; sc, subcutaneous, read-out: Writhing assay ED50 Dose, S.C.): 8.3 mg/kg; Writhing Assay potency ranking (in words) ([2]; among compounds tested): most potent compound of the invention tested in this assay
O=C(CCC(=O)N1Cc2ccccc2Oc2ccc(Cl)cc21)NCc1ccncc1 [Example 9, 8-chloro-γ-oxo-N-(4-pyridinylmethyl)dibenz[b,f]-[1,4]oxazepine-10(11)-butanamide] | 6/10 | – | Kb [3]: 2400 nM
CN(C)CCNC(=O)CCC(=O)N1Cc2ccccc2Oc2ccc(Cl)cc21 [Example 10, 8-chloro-N-[2-(dimethylamino)ethyl]-γ-oxodibenz [b,f][1,4]oxazepine-10(11)-butanamide] | 6/9 | – | –
O=C(Cc1ccccc1)NNC(=O)N1Cc2ccccc2Oc2ccc(Cl)cc21 [SC-18637] | – | – | inhibition of stimulant actions of prostaglandins (in words) [4]: inhibit the stimulant actions of prostaglandins on isolated smooth muscle preparations
CC(=O)NNC(=O)N1Cc2ccccc2Oc2ccc(Cl)cc21 [SC-19220] | – | – | inhibition of stimulant actions of prostaglandins (in words) [4]: inhibit the stimulant actions of prostaglandins on isolated smooth muscle preparations; bladder capacity (in words) [5]: increased the bladder capacity; voiding efficiency of micturition (in words) [5]: reduced the voiding efficiency of micturition
